Our source for the IC50 values is patent US20230113037A1 (Bayer Aktiengesellschaft, priority 2019, published 2023).

For experiment [1], the target named is T1, AHR (Homo sapiens, UniProt P35869).
T1 construct: U87 MG glioblastoma cells (ATCC #HTB-14) endogenously expressing AHR; endogenous in cells; host or cells: U87 MG glioblastoma cells (ATCC #HTB-14)
T1 sequence (P35869 11-848): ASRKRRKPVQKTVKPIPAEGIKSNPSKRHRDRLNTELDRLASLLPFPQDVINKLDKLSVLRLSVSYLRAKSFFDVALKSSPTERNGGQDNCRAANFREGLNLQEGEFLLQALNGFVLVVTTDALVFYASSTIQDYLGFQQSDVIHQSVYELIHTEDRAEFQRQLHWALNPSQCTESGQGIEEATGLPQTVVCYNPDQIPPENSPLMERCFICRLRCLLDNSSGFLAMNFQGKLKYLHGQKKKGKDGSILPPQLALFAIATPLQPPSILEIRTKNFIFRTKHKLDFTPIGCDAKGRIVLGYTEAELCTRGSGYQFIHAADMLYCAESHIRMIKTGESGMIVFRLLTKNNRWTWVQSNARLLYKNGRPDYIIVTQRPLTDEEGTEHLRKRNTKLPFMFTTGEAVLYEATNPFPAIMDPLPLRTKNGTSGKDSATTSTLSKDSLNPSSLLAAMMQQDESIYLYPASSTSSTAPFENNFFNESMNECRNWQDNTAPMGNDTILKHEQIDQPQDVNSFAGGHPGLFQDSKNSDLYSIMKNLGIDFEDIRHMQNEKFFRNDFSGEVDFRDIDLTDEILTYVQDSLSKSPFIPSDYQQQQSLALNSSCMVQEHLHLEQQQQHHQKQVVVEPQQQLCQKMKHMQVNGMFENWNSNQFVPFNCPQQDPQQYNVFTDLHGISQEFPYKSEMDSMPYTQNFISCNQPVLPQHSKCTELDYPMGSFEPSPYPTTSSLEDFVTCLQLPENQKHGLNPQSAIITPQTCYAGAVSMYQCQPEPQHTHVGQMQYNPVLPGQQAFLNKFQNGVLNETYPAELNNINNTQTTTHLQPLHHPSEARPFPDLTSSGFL
Put plainly: In vitro assay 1: antagonism in human cell line (AHR transactivation, firefly luciferase reporter, kynurenic acid prestimulated). Type of experiment: cell-based. The following applies: AHR Antagonism Human IC50 [M]. The essentials:
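U87 MG glioblastoma cells with endogenous AHR, stably carrying a DRE-driven firefly luciferase reporter and constitutive Renilla reporter, prestimulated with kynurenic acid before compound addition. Firefly and Renilla read by dual luciferase; Renilla flags toxicity; normalized to controls (150 μM kynurenic acid + 5 μM staurosporine as full inhibition); repeat values averaged or median.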

Experiment [2] deals with T2, AHR (Mus musculus, UniProt P30561).
T2 sequence (P30561 1-848 P471L/N533S/M589L): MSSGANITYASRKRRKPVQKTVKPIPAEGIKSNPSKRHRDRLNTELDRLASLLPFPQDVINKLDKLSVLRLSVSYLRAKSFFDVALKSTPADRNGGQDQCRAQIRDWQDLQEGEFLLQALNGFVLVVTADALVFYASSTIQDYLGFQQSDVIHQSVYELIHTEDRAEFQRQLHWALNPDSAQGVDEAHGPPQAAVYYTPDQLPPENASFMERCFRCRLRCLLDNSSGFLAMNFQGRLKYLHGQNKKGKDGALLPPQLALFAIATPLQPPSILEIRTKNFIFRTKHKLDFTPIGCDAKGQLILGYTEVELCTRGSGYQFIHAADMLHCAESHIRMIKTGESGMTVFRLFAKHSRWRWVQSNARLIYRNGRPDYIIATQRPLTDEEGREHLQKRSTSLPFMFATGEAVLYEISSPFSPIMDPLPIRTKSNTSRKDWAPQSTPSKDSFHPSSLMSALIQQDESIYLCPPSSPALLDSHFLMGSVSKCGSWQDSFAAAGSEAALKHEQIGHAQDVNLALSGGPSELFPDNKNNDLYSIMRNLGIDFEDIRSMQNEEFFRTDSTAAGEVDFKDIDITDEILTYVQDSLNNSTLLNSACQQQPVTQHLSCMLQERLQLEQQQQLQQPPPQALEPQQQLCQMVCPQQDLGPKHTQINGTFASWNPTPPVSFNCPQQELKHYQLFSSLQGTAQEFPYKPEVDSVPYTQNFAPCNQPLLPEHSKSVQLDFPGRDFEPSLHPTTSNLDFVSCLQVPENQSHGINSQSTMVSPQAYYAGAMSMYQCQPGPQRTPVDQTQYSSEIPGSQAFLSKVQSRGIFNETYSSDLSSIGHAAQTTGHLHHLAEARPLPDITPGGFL
Put plainly: In vitro assay 3: antagonism in mouse cell line (AHR transactivation, firefly luciferase reporter, kynurenic acid prestimulated). In kind it is cell-based. The method, boiled down: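 Cells were first stimulated with kynurenic acid, then exposed to test compound, after which firefly luciferase from a DRE-containing AHR reporter was read out. Signal was scaled between positive and negative controls. Cells not given kynurenic acid provided the inhibition reference.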

[3] abbreviates: mouse Hepa 1c1c7 cells, 200 μM kynurenic acid, 20 hours, read-out: AHR Antagonism Mouse IC50.
Setting [4] is: Hepa 1c1c7 cells, 200 μM kynurenic acid, 20 hours, firefly luciferase reporter, read-out: AHR Antagonism Mouse IC50.

Like-named read-outs stand apart in the source and are kept apart here. A value given as a limit tells only on which side of the number the result lay.

As for `COc1ccc(-c2nc3c4ccccc4nc(N[C@@H]4CCCCNC4=O)n3n2)cc1C(F)(F)F` [Example 722, (3R)-3-({2-[4-methoxy-3-(trifluoromethyl)phenyl][1,2,4]triazolo[1,5-c]quinazolin-5-yl}amino)azepan-2-one], the figures for the IC50 in experiment [1] and in experiment [2] (setting [3]) were 7.2e-09 M and 6.63 nM, respectively.

With `COc1cccc(-c2nc3c4ccccc4nc(N[C@H](CC(C)C)C(N)=O)n3n2)c1` [Example 82, N^2-[2-(3-methoxyphenyl)[1,2,4]triazolo[1,5-c]quinazolin-5-yl]-D-leucinamide], the figures for the half-inhibitory concentration (IC50) in experiment [1] and in experiment [2] (setting [3]) were 8.87e-09 M and 12.9 nM, respectively.

For `COc1ccc(-c2nc3c4ccccc4nc(N[C@H]4CCCCNC4=O)n3n2)c(C(F)(F)F)c1` [Example 513, (3S)-3-({2-[4-methoxy-2-(trifluoromethyl)phenyl][1,2,4]triazolo[1,5-c]quinazolin-5-yl}amino)azepan-2-one], the IC50 in experiment [1] turned out to be 2.66e-07 M; in experiment [2] (setting [3]), 35.6 nM.

Consider `CNC(=O)[C@H](C)Nc1nc2ccccc2c2nc(-c3cccc(OC)c3)nn12` [Example 102, N^2-[2-(3-methoxyphenyl)[1,2,4]triazolo[1,5-c]quinazolin-5-yl]-N-methyl-L-alaninamide], for which the figures for the IC50 in experiment [1] and in experiment [2] (setting [3]) were 6.01e-07 M and 246 nM, respectively.

For `O=C1NCCNC[C@H]1Nc1nc2c(Cl)cccc2c2nc(-c3cccc(F)c3)nn12` [Example 419, (6R)-6-{[7-chloro-2-(3-fluorophenyl)[1,2,4]triazolo[1,5-c]quinazolin-5-yl]amino}-1,4-diazepan-5-one], the IC50 was 3.49e-09 M in experiment [1] and 3.46 nM in experiment [2] (setting [3]).

With `Cc1ccccc1-c1nc2c3ccccc3nc(N[C@H]3CCCCNC3=O)n2n1` [Example 41, (3S)-3-{[2-(2-methylphenyl)[1,2,4]triazolo[1,5-c]quinazolin-5-yl]amino}azepan-2-one], the IC50 in experiment [1] worked out at 2.12e-08 M; in experiment [2] (read-out: AHR Antagonism Mouse IC50, mouse Hepa 1c1c7 cells, 200 μM kynurenic acid, 20 hours), 1.7 nM.

For the compound `Cc1c(-c2nc3c4cccc(Br)c4nc(N[C@@H]4CNCCNC4=O)n3n2)cnn1C` [Example 979, (6R)-6-{[7-bromo-2-(1,5-dimethyl-1H-pyrazol-4-yl)[1,2,4]triazolo[1,5-c]quinazolin-5-yl]amino}-1,4-diazepan-5-one], the IC50 came out at 2.13e-08 M in experiment [1] (firefly luciferase reporter) and 10.5 nM in experiment [2] (setting [4]).

For `O=C1NCCCC[C@H]1Nc1nc2ccccc2c2nc(-c3cnccn3)nn12` [Example 689, (3R)-3-{[2-(pyrazin-2-yl)[1,2,4]triazolo[1,5-c]quinazolin-5-yl]amino}azepan-2-one], the results for the IC50 in experiment [1] and in experiment [2] (setting [3]) were 1.6e-07 M and 156 nM, respectively.

For `CC[C@H](Nc1nc2ccccc2c2nc(-c3ccc(Cl)cc3OC(F)(F)F)nn12)C(N)=O` [Example 522, (2S)-2-({2-[4-chloro-2-(trifluoromethoxy)phenyl][1,2,4]triazolo[1,5-c]quinazolin-5-yl}amino)butanamide], the IC50 in experiment [1] was > 2e-05 M; in experiment [2] (setting [3]), 29.1 nM.

Turning to `Cn1cc(-c2nc3c4ccccc4nc(N[C@H]4CCCCNC4=O)n3n2)cn1` [Example 14, (3S)-3-{[2-(1-methyl-1H-pyrazol-4-yl)[1,2,4]triazolo[1,5-c]quinazolin-5-yl]amino}azepan-2-one], the figures for the IC50 in experiment [1] and in experiment [2] (setting [3]) were 2.14e-07 M and 234 nM, respectively.

With `Cc1cscc1-c1nc2c3ccccc3nc(N[C@@H]3CCCCNC3=O)n2n1` [Example 538, (3R)-3-{[2-(4-methylthiophen-3-yl)[1,2,4]triazolo[1,5-c]quinazolin-5-yl]amino}azepan-2-one], the IC50 in experiment [1] was 8.79e-10 M; in experiment [2] (setting [3]), 0.646 nM.

Turning to `C[C@@H](Nc1nc2c(Br)cccc2c2nc(-c3cnn(C)c3)nn12)C(=O)NCCN1CCOCC1` [Example 782, N^2-[7-bromo-2-(1-methyl-1H-pyrazol-4-yl)[1,2,4]triazolo[1,5-c]quinazolin-5-yl]-N-[2-(morpholin-4-yl)ethyl]-D-alaninamide], the IC50 in experiment [1] came out at 1.29e-07 M; in experiment [2] (setting [3]) it was 79.7 nM.

Turning to `Cn1cc(-c2nc3c4cccc(Br)c4nc(N[C@H]4CS(=O)(=O)CCNC4=O)n3n2)cn1` [Example 848, (6R)-6-{[7-bromo-2-(1-methyl-1H-pyrazol-4-yl)[1,2,4]triazolo[1,5-c]quinazolin-5-yl]amino}-1λ^6,4-thiazepane-1,1,5-trione], the IC50 in experiment [1] (firefly luciferase reporter) was 1.69e-07 M; in experiment [2] (setting [4]) it was 197 nM.

Regarding `O=C1NCCCCCC1Nc1nc2ccccc2c2nc(-c3ccccc3OC(F)(F)F)nn12` (stereo not shown) [Example 461, 3-({2-[2-(trifluoromethoxy)phenyl][1,2,4]triazolo[1,5-c]quinazolin-5-yl}amino)azocan-2-one], the IC50 came out at 6.18e-09 M in experiment [1] and 1.95 nM in experiment [2] (setting [3]).

`COc1ccc(-c2nc3c4cccc(Br)c4nc(N[C@H](C)C(=O)NCCN(C)C(=O)OC(C)(C)C)n3n2)cc1` [Example 887, tert-butyl [2-({N-[7-bromo-2-(4-methoxyphenyl)[1,2,4]triazolo[1,5-c]quinazolin-5-yl]-D-alanyl}amino)ethyl]methylcarbamate]: the IC50 worked out at 1.37e-09 M in experiment [1] (firefly luciferase reporter) and 10.1 nM in experiment [2] (read-out: AHR Antagonism Mouse IC50, Hepa 1c1c7 cells, 200 μM kynurenic acid, 20 hours, firefly luciferase reporter).

For the compound `CCC[C@@H](Nc1nc2ccccc2c2nc(-c3ccc(S(C)(=O)=O)cc3)nn12)C(=O)NC` [Example 377, N^2-{2-[4-(methanesulfonyl)phenyl][1,2,4]triazolo[1,5-c]quinazolin-5-yl}-N-methyl-D-norvalinamide], the results for the IC50 in experiment [1] and in experiment [2] (setting [3]) were 3.28e-08 M and 12.4 nM, respectively.

As to `COc1ccc(-c2nc3c4ccccc4nc(N[C@@H]4CNCCNC4=O)n3n2)cc1OC` [Example 409, (6R)-6-{[2-(3,4-dimethoxyphenyl)[1,2,4]triazolo[1,5-c]quinazolin-5-yl]amino}-1,4-diazepan-5-one], the IC50 in experiment [1] is 6.98e-08 M; in experiment [2] (setting [3]), 17.1 nM.

For the compound `O=C1NCCNC[C@H]1Nc1nc2ccccc2c2nc(-c3ccccc3OC(F)(F)F)nn12` [Example 720, (6R)-6-({2-[2-(trifluoromethoxy)phenyl][1,2,4]triazolo[1,5-c]quinazolin-5-yl}amino)-1,4-diazepan-5-one], the values for the IC50 in experiment [1] and in experiment [2] (setting [3]) were 1.45e-07 M and 63.8 nM, respectively.

Regarding `COC(=O)[C@H](Nc1nc2c(Br)cccc2c2nc(-c3ccc(OC)cc3)nn12)C(C)C` [Example 867, methyl N-[7-bromo-2-(4-methoxyphenyl)[1,2,4]triazolo[1,5-c]quinazolin-5-yl]-D-valinate], the IC50 was 2.6e-09 M in experiment [1] (firefly luciferase reporter) and 3 nM in experiment [2] (setting [4]).

In the case of `CC(C)n1cc(-c2nc3c4cccc(C#N)c4nc(N[C@@H]4CCCCNC4=O)n3n2)cn1` [Example 760, 5-{[(3R)-2-oxoazepan-3-yl]amino}-2-[1-(propan-2-yl)-1H-pyrazol-4-yl][1,2,4]triazolo[1,5-c]quinazoline-7-carbonitrile], the figures for the 50% inhibitory concentration (IC50) in experiment [1] and in experiment [2] (setting [3]) were 3.6e-09 M and 10 nM, respectively.

Usually IC50 stands for the point on the concentration scale where inhibition reaches its midpoint.
